Read-outs that look alike come from different tables or passages of the source. Square brackets hold non-standard residues; d marks the D form. Peptide text beside a SMILES is read from it. * marks the point of attachment. Benzoyl(4-CF3) = O=C(c1ccc(C(F)(F)F)cc1)*; PEG8 = NCCOCCOCCOCCOCCOCCOCCOCCOCCC(=O)O; 2Nal = N[C@@H](Cc1ccc2ccccc2c1)C(=O)O; dNMeY = CN[C@H](Cc1ccc(O)cc1)C(=O)O; Palmitoyl = CCCCCCCCCCCCCCCC(=O)*; Tic = O=C(O)[C@@H]1Cc2ccccc2CN1; NMeL = CN[C@@H](CC(C)C)C(=O)O; NMeS = CN[C@@H](CO)C(=O)O; Nle = CCCC[C@H](N)C(=O)O; Thz = O=C(O)[C@@H]1CSCN1; βAla = NCCC(=O)O
Legend:
[1] = target: T1, human Chemokine like receptor 1 (Homo sapiens, UniProt Q99788); assay: Activation of Tango CMKLR1-bla U2OS cells (beta-lactamase FRET reporter); format: cell-based
T1 construct: host or cells: U2OS (Tango CMKLR1-bla U2OS)
T1 sequence (Q99788 1-373): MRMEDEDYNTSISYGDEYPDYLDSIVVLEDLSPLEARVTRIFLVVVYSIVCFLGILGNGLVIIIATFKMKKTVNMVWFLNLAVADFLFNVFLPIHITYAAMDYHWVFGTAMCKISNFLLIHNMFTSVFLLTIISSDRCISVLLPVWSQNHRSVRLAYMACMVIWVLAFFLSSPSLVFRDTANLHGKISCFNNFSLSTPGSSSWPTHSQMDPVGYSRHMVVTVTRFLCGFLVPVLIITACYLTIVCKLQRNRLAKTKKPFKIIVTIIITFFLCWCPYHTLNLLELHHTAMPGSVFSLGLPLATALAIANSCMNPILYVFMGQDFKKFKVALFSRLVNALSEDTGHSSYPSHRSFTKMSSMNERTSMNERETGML
How it was run: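 Agonist mode in Tango CMKLR1-bla U2OS cells, 10000 cells/well seeded overnight, then 10-point 3-fold compound dilutions from 10 mM DMSO stock applied for 4 h at 37 °C, 5% CO2. Beta-lactamase reporter read with CCF4-AM FRET substrate; peptide (D-Tyr)-Phe-Leu-Pro-(D-Ser)-Gln-Phe-(D-Ala)-Tic-Ser served as positive control.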

[2] = Plasma stability, human plasma; format: in vitro ADME; details: 37° C., time points 0 minute, 1, 2 and 4 hours, LC-MS/MS, read-out: Human plasma (T1/2 (h)) (converted)
Protocol: (§1) 1. Preparation of 50 mM Phosphate Buffer (50 mM Sodium Phosphate and 70 mM NaCl):
(§2) 5.750 g of Na2HPO4, 1.141 g of NaH2PO4 and 4.095 g of NaCl (Shanghai Titan) were weighed and dissolved in 1000 mL of ultrapure water and the pH was adjusted to 7.4. The prepared phosphate buffer was stored in the refrigerator at 4° C., valid for one week.
(§3) 2. Preparation of Compound Stock Solution:
(§4) 1) 5 mg/mL test compound: 5 mg of compound was weighed and dissolved in 1 mL of DMSO.
(§5) 2) 20 mM control: 2.728 mg of nococaine was dissolved in 0.5 mL of DMSO. 3.878 mg of fenfluramide was dissolved in 0.5 mL of DMSO (Amresco).
(§6) 3. Preparation of Experimental Plasma:
(§7) The frozen plasma (human: Shanghai ChemPartner, Rat, Mouse: Shanghai Xipuer-Beikai, Dog, Monkey: Suzhou Xishan Zhongke) was taken out from the −80° C. refrigerator, immediately placed in a 37° C. water bath, and thawn with gentle shaking. The thawed plasma was poured into a centrifuge tube, and centrifuged at 3000 rpm for 8 minutes. The supernatant was collected for the experiment. The pH of the plasma was measured with a pH meter (METTLER TOLEDO), and only the plasma with a pH between 7.4 and 8 was used for the experiment. The plasma was placed on an ice bath for later use.
(§8) 4. Preparation of the Dosing Solution:
(§9) 1) 125 μg/mL test compound solution: 5 μL of 5 mg/mL test compound (see step 2) was added to 195 μL DMSO; 500 μM control solution: 20 mM control stock solution (see step 2) was added to 195 μL DMSO.
(§10) 2) 0.5% BSA phosphate buffer solution: 0.05 g of BSA was added to 10 mL of phosphate buffer (see step 1).
(§11) 3) 5 μg/mL test compound dosing solution: 40 μL of 125 μg/mL test compound solution was added to 960 μL of 0.5% BSA phosphate buffer solution, shaken and mixed evenly, and the dosing solution was placed in a 37° C. water bath and preheated for 5 minutes.
(§12) 20 μM control dosing solution: 40 μL of 500 μM control solution was added to 960 μL of 0.5% BSA phosphate buffer solution, shaken and mixed evenly, and the dosing solution was placed in a 37° C. water bath and preheated for 5 minutes.
(§13) 5. 10 μL of 5 μg/mL test compound and 20 μM control solution were added to the wells of the 96-well plate set at different time points (0 minute, 1 hour, 2 hours and 4 hours). The number of duplicate samples was 3.
(§14) 6. 500 μL of ACN (IS) containing 5% FA was added to the wells set at 0 minute. 90 μL of plasma was then added thereto, mixed evenly, sealed with the film and stored at 4° C. (the number of duplicates was 3).
(§15) 7. 90 μL of plasma was added to the wells set at 1 hour, 2 hours and 4 hours (the number of replicates was 3), followed by timing (the final concentration of the test compound was 500 ng/mL, and that of the control was 2 μM).
(§16) 9. All samples (0 minutes, 1 hour, 2 hours, and 4 hours) at different time points on the 96-well plate were placed on a shaker (IKA, MTS 2/4) and shaken at 600 rpm for 60 minutes. The samples were then centrifuged for 15 minutes on a centrifuge machine (Thermo Multifuge×3R) at 5594×g.
(§17) 10. 150 μL of the supernatant was taken out from the centrifuged sample and sent to LC-MS/MS for analysis (conventional peptide LC-MS/MS analysis).

[3] = Plasma stability, mouse plasma; format: in vitro ADME; details: 37° C., 0-4 hours, LC-MS/MS, "Very long" = no significant degradation found in the test (4 hours); for Mouse plasma (T1/2 (h)): 500 ng/mL; for half-life at 500 ng/mL: read-out: Mouse plasma (T1/2 (h)) (converted)
Protocol: as §1, §2, §3, §4, §5, §6, §7, §8, §9, §10, §11, §12, §13, §14, §15, §16, §17

[4] = determination by the method of Effect Embodiment 1, read-out: EC50

Row | SMILES | EC50 [1] | half-life at 500 ng/mL [2] | Mouse plasma (T1/2 (h)) [3] | EC50 [1, 4] | half-life at 500 ng/mL [3]
1 | CC(C)C[C@@H](C(=O)N1CSC[C@H]1C(=O)N[C@H](CO)C(=O)N[C@@H](CCC(N)=O)C(=O)N[C@@H](Cc1ccc2ccccc2c1)C(=O)N[C@H](C)C(=O)N1Cc2ccccc2C[C@H]1C(=O)N[C@@H](CO)C(=O)O)N(C)C(=O)[C@H](Cc1ccccc1)NC(=O)[C@H](N)Cc1ccc(O)cc1 [YW-122, (D-Tyr)-Phe-(NMe-Leu)-Thz-(D-Ser)-Gln-2Nal-(D-Ala)-Tic-Ser-OH] (H-[dY]F[NMeL][Thz][dS]Q[2Nal][dA][Tic]S-OH) | 0.6 nM | 79.6 h | Very long |  | 
2 | CN[C@H](Cc1ccc(O)cc1)C(=O)N[C@@H](Cc1ccccc1)C(=O)N(C)[C@@H](CC(C)C)C(=O)N1CSC[C@H]1C(=O)N[C@H](CO)C(=O)N[C@@H](CCC(N)=O)C(=O)N[C@@H](Cc1ccc2ccccc2c1)C(=O)N[C@H](C)C(=O)N1Cc2ccccc2C[C@H]1C(=O)N(C)[C@@H](CO)C(=O)O [YW-125, (D-NMe-Tyr)-Phe-(NMe-Leu)-Thz-(D-Ser)-Gln-2Nal-(D-Ala)-Tic-(NMe-Ser)-OH] (H-[dNMeY]F[NMeL][Thz][dS]Q[2Nal][dA][Tic][NMeS]-OH; N-terminus assumed) |  |  | Very long | 0.6 nM | 
3 | CCCCCCCCCCCCCCCC(=O)NCCOCCOCCOCCOCCOCCOCCOCCOCCC(=O)NCC(=O)NCC(=O)N[C@H](Cc1ccc(O)cc1)C(=O)N[C@@H](Cc1ccccc1)C(=O)N(C)[C@@H](CC(C)C)C(=O)N1CCC[C@H]1C(=O)N[C@H](CO)C(=O)N[C@@H](CCC(N)=O)C(=O)N[C@@H](Cc1ccccc1)C(=O)N[C@H](C)C(=O)N1Cc2ccccc2C[C@H]1C(=O)N[C@@H](CO)C(=O)O [YW-133, Palm-PEG8-Gly-Gly-(D-Tyr)-Phe-(NMe-Leu)-Pro-(D-Ser)-Gln-Phe-(D-Ala)-Tic-Ser-OH] ({Palmitoyl-PEG8}-GG[dY]F[NMeL]P[dS]QF[dA][Tic]S-OH) |  | 13.7 h |  | 0.7 nM | 67.1 h
4 | CCCCCCCCCCCCCCCC(=O)NCCOCCOCCOCCOCCOCCOCCOCCOCCC(=O)NCCC(=O)NCCC(=O)N[C@H](Cc1ccc(O)cc1)C(=O)N[C@@H](Cc1ccccc1)C(=O)N(C)[C@@H](CC(C)C)C(=O)N1CCC[C@H]1C(=O)N[C@H](CO)C(=O)N[C@@H](CCC(N)=O)C(=O)N[C@@H](Cc1ccccc1)C(=O)N[C@H](C)C(=O)N1Cc2ccccc2C[C@H]1C(=O)N[C@@H](CO)C(=O)O [YW-134, Palm-PEG8-βAla-βAla-(D-Tyr)-Phe-(NMe-Leu)-Pro-(D-Ser)-Gln-Phe-(D-Ala)-Tic-Ser-OH] ({Palmitoyl-PEG8-βAla-βAla}-[dY]F[NMeL]P[dS]QF[dA][Tic]S-OH) |  | 14 h |  | 0.7 nM | 11.4 h
5 | CC(C)C[C@@H](C(=O)N1CCC[C@H]1C(=O)N[C@H](CO)C(=O)N[C@@H](CCC(N)=O)C(=O)N[C@@H](Cc1ccccc1)C(=O)N[C@H](C)C(=O)N1Cc2ccccc2C[C@H]1C(=O)N[C@@H](CO)C(=O)O)N(C)C(=O)[C@H](Cc1ccccc1)NC(=O)[C@@H](Cc1ccc(O)cc1)NC(=O)c1ccc(C(F)(F)F)cc1 [YW-195, 4-(trifluoromethyl)benzoyl-(D-Tyr)-Phe-(NMe-Leu)-Pro-(D-Ser)-Gln-Phe-(D-Ala)-Tic-Ser] ({Benzoyl(4-CF3)}-[dY]F[NMeL]P[dS]QF[dA][Tic]S-OH) |  |  |  | 0.8 nM | 
6 | CCCC[C@H](NC(=O)[C@H](Cc1ccccc1)NC(=O)[C@H](N)Cc1ccc(O)cc1)C(=O)N1CCC[C@H]1C(=O)N[C@H](CO)C(=O)N[C@@H](CCC(N)=O)C(=O)N[C@@H](Cc1ccccc1)C(=O)N[C@H](C)C(=O)N1Cc2ccccc2C[C@H]1C(=O)N[C@@H](CO)C(=O)O [YW-197, (D-Tyr)-Phe-Nle-Pro-(D-Ser)-Gln-Phe-(D-Ala)-Tic-Ser] (H-[dY]F[Nle]P[dS]QF[dA][Tic]S-OH) | 10 nM |  |  |  | 

Source: patent publication US12129312B2, “Peptide compound, application thereof and composition containing same” (priority 2017, dated 2024)
